From US9522198B2, “Methods and compositions related to targeting tumors and wounds” (Sanford-Burnham Medical Research Institute, priority 2006, dated 2016) come the findings set out here.

The test system of experiment [1] is fibronectin. Nature of the experiment: Aggregate formation with plasma proteins, light scattering at 600 nm (turbidity). It is filed as biochemical. An excerpt: CLT1 contains a sequence of three consecutive hydrophobic residues, LII (leucine-isoleucine-isoleucine). This motif is very similar to the VII sequence (V, valine) which causes proteins to form large insoluble aggregates (Esteras-Chopo et al. 2005). […] The ability of CLT1 to aggregate proteins correlates with its cytotoxicity for human umbilical venous endothelial cells (HUVECs).

The subject of experiment [2] is orthotopic MDA-MB-435 xenograft tumors. Nature of the experiment: Tumor homing of i.v. injected fluorescein-conjugated peptides, MDA-MB-435 xenografts. It is filed as in vivo, mouse. An excerpt:
To determine whether the CLT peptides would recognize clotted plasma proteins in vivo, the peptides were synthesized as fluorescein conjugates and imaged their accumulation in tumors. Mice bearing orthotopic MDA-MB-435 xenograft tumors were intravenously injected with fluorescein-conjugated CLT1 (n=6), CLT2 (n=4), or a control peptide (n=4) with the sequence KAREC (SEQ ID NO: 5).
B16F1 mouse melanoma, Lewis lung carcinoma, C8161 human melanoma, MDA-MB-435 human breast cancer, and PPC-1 human prostate cancer cells (American Type Culture Collection) were maintained in RPMI or DMEM supplemented with 10% FCS. Human tumor cells (1×10^6) were injected into the mammary fat pad or the flank of nude BALB/c nu/nu mice to induce tumors. MMTV PyMT mice were provided by Dr. Robert Oshima (Burnham Institute for Medical Research, La Jolla, Calif.). The MMTV PyMT mice develop breast cancer under the influence of a polyoma middle T antigen driven by the mouse tumor virus promoter (Siegel, P. M., Ryan, E. D., Cardiff, R. D., Muller W. J. (1999) EMBO J., 18, 2149-64). B16F1 tumors induced by injecting 1×10^6 cells subcutaneously were grown in the flank of fibrinogen knock-out mice (Suh, T. T., Holmback, K., Jensen, N. J., Daugherty, C. C., Small, K., Simon, D. I., Potter, S., & Degen, J. L. (1995) Genes Dev. 9, 2020-2033), and of transgenic plasma fibronectin-deficient C57BL/6-Fn(f1/f1) Mx-Cre^+ (Sakai, T., Johnson, K. J., Murozono, M., Sakai, K., Magnuson, M. A., Wieloch, T., Cronberg, T., Isshiki, A., Erickson, H. P., & Fassler R. (2001) Nat. Med. 7, 324-30) and their wild type littermates. Deletion of the fibronectin gene in the liver was induced by poly(I):poly(C) (Yi, M., Sakai, T., Fassler, R., & Ruoslahti, E. (2003) Proc. Natl. Acad. Sci. USA. 100, 11435-11438). Frozen human tissues from clinical breast cancers were provided by the Western Division of the NCI Cooperative Human Tissue Network (Vanderbilt University Medical Center, Nashville, Tenn.).
Peptides were synthesized and conjugated to fluorescein isothiocyanate as described (Laakonen et al. PNAS 2004), and cyclized by exposure to air.
Imaging under a blue light, and examination of the distribution of fluorescein-conjugated peptides after tail vein injection have been described (Hoffman, R. M. (2005) Nature Reviews Cancer 5, 796-806; Laakkonen, P., Akerman, M. E., Biliran, H., Yang, M., Ferrer, F., Karpanen, T., Hoffman, R. M., & Ruoslahti E. (2004) Proc. Natl. Acad. Sci. USA 101, 9381-6).
The imaging methods are briefly described as follows: A Leica fluorescence stereomicroscope, model LZ12, equipped with a 50-W mercury lamp, was used for high-magnification imaging. Selective excitation of GFP was produced through a D425y60 band-pass filter and 470 DCXR dichroic mirror. Emitted fluorescence was collected through a long-pass filter GG475 (Chroma Technology, Brattleboro, Vt.) on a Hamamatsu C5810 3-chip cooled color charge-coupled device camera (Hamamatsu Photonics Systems, Bridgewater, N.J.). Images were processed for contrast and brightness and analyzed with the use of IMAGE PRO PLUS 3.1 software (Media Cybernetics, Silver Springs, Md.). Images of 1,024×724 pixels were captured directly on an IBM PC or continuously through video output on a high-resolution Sony VCR model SLV-R1000 (Sony, Tokyo). Imaging at lower magnification that visualized the entire animal was carried out in a light box illuminated by blue light fiber optics (Lightools Research, Encinitas, Calif.) and imaged by using the thermoelectrically cooled color charge-coupled device camera, as described above (Yang, M., Baranov, E., Jiang, P., Sun, F-X., Li, X-M., Li, L., Hasegawa, S., Bouvet, M., Al-Tuwaijri, M., Chishima, T., et al (2000) Proc. Natl. Acad. Sci. USA 97, 1206-11).
The mice were perfused through the heart 3 hours after the peptide injection and tissues removed for examination. […]

Setting [3] is: 500 μg fluorescein-conjugated peptide i.v., 3 h.

Entries after “also recorded” stand apart in the source; their conditions may differ. Ends that are not written are not given here.

“CGLIIQKNEC (also: cyclic, ring type not given here, fluorescein conjugate, site not given here) [CLT1, cyclic decapeptide from phage library screened on plasma clots; tested as fluorescein conjugate]”: the “aggregate formation with fibronectin” value in experiment [1] is given as “form aggregates”. In addition, in experiment [2] (setting [3]), the “fluorescence in control / healthy organs” value is on record as “not in control organs” and the “fluorescence in tumors, whole tissues under blue light” value was “intense fluorescence; also recorded: strong fluorescence”. For the same sequence, the “histological distribution of peptide fluorescence within the tumor” value in experiment [2] (fluorescein-conjugated peptide i.v., 3 h, 400×) is listed as “distributed in a network pattern”. The “tumor homing / fluorescence on co-injection with unlabeled CLT2” value in experiment [2] (unlabeled CLT2 in 5 fold excess) is given as “strongly reduced”.
